Experimental data taken from patent US7683181B2, “Cyclic N-[1,3,4]-thiadiazol-2-yl-benzene sulfonamides, pharmaceutical compositions and methods for the therapeutic use thereof” (Sanofi-aventis, priority 2005, dated 2010).

Experiments:
human PPARgamma = target: T1, human PPARgamma (Homo sapiens, UniProt P37231); assay: cellular PPARgamma assay (transiently transfected HEK cells, luciferase reporter); format: cell-based; details: GAL4-humanPPARgammaLBD
T1 construct: amino acids I152-Y475; expressed in transfected cells; host or cells: HEK cells, transient transfection of pcDNA3-GAL4-humanPPARgammaLBD
T1 sequence (P37231 with tags, fused parts or gaps isoform P37231-2 limits assumed): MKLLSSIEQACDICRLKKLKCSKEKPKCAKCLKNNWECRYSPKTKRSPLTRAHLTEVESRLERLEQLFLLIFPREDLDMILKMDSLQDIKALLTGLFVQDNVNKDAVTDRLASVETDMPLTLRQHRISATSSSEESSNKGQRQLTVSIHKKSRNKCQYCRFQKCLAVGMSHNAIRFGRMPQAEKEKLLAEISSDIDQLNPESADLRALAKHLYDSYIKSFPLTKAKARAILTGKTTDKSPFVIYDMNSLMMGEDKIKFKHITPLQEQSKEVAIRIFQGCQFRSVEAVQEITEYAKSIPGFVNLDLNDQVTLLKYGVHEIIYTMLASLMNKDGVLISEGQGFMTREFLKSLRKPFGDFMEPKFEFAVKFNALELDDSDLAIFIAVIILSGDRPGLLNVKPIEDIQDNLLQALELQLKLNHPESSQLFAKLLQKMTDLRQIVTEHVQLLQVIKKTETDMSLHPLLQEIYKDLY
From the text: Determination of EC50 values of PPAR agonists in the cellular PPARgamma assay
A transient transfection system is employed to determine the cellular PPARgamma activity of PPAR agonists. It is based on the use of a luciferase reporter plasmid (pGL3basic-5×GAL4-TK) and of a PPARgamma expression plasmid (pcDNA3-GAL4-humanPPARgammaLBD). Both plasmids are transiently transfected into human embryonic kidney cells (HEK cells). There is then expression in these cells of the fusion protein GAL4-humanPPARgammaLBD which binds to the GAL4 binding sites of the reporter plasmid. In the presence of a PPARgamma-active ligand, the activated fusion protein GAL4-humanPPARgammaLBD induces expression of the luciferase reporter gene, which can be detected in the form of a chemiluminescence signal after addition of a luciferase substrate. As a difference from the stably transfected PPARalpha reporter cell line, in the cellular PPARgamma assay the two components (luciferase reporter plasmid and PPARgamma expression plasmid) are transiently transfected into HEK cells because stable and permanent expression of the PPARgamma fusion protein is cytotoxic.
The luciferase reporter plasmid pGL3basic-5×GAL4-TK is based on the vector pGL3basic from Promega. The reporter plasmid is prepared by cloning five binding sites of the yeast transcription factor GAL4 (each binding site with the sequence 5′-CTCGGAGGACAGTACTCCG-3′), together with a 160 bp-long thymidine kinase promoter section (Genbank Accession #AF027128) 5′-upstream into pGL3basic. 3′-downstream of the thymidine kinase promoter is the complete luciferase gene from Photinus pyralis (Genbank Accession #M15077) which is already a constituent of the plasmid pGL3basic used. The cloning and sequencing of the reporter plasmid pGL3basic-5×GAL4-TK took place in analogy to the description in Sambrook J. et. al. (Molecular cloning, Cold Spring Harbor Laboratory Press, 1989).
The PPARgamma expression plasmid pcDNA3-GAL4-humanPPARgammaLBD was prepared by first cloning the cDNA coding for amino acids 1-147 of the yeast transcription factor GAL4 (Genbank Accession #P04386) into the plasmid pcDNA3 (from Invitrogen) 3′-downstream of the cytomegalovirus promoter. Subsequently, the cDNA of the ligand-binding domain (LBD) of the human PPARgamma receptor (amino acids I152-Y475; Accession #g1480099) 3′-downstream of the GAL4 DNA binding domain. Cloning and sequencing of the PPARgamma expression plasmid pcDNA3-GAL4-humanPPARgammaLBD again took place in analogy to the description in Sambrook J. et. al. (Molecular cloning, Cold Spring Harbor Laboratory Press, 1989). […]
The activity of PPARgamma agonists is determined in a 4-day assay which is described below. […]

human PPARdelta = target: T2, human PPARdelta (Homo sapiens, UniProt Q03181); assay: cellular PPARdelta assay (stably transfected HEK luciferase reporter cell line); format: cell-based; details: GR-GAL4-humanPPARdelta-LBD
T2 construct: amino acids S139-Y441; expressed in transfected cells
T2 sequence (Q03181 139-441): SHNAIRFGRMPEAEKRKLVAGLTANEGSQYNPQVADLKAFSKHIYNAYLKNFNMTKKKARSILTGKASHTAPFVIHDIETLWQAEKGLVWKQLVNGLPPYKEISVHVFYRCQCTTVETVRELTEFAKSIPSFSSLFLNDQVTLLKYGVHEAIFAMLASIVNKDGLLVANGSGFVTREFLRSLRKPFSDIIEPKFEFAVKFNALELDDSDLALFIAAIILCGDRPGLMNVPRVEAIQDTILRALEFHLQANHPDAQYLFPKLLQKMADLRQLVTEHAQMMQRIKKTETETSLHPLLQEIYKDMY
Protocol: The assay plates are incubated in an incubator at 37° C. and 5% CO2 for 24 h. […]
The raw data from the luminometer are transferred into a Microsoft Excel file. Dose-effect plots and EC50 values of PPAR agonists are calculated using the XL.Fit program as specified by the manufacturer (IDBS).
The potency of substances which bind to human PPARdelta and activate it in an agonistic manner was analyzed through the determination of the EC50 values of PPAR agonists in the cellular PPARdelta assay using a stably transfected HEK cell line (HEK=human embryo kidney) which is referred to here as PPARdelta reporter cell line. In analogy to the assay described for PPARalpha, the PPARdelta reporter cell line also contains two genetic elements, a luciferase reporter element (pdeltaM-GAL4-Luc-Zeo) and a PPARdelta fusion protein (GR-GAL4-humanPPARdelta-LBD) which mediates expression of the luciferase reporter element depending on a PPARdelta ligand. The stably and constitutively expressed fusion protein GR-GAL4-humanPPARdelta-LBD binds in the cell nucleus of the PPARdelta reporter cell line via the GAL4 protein portion to the GAL4 DNA binding motifs 5′-upstream of the luciferase reporter element which is stably integrated in the genome of the cell line. There is only little expression of the luciferase reporter gene in the absence of a PPARdelta ligand if fatty acid-depleted fetal calf serum (cs-FCS) is used in the assay. PPARdelta ligands bind and activate the PPARdelta fusion protein and thereby stimulate expression of the luciferase reporter gene. The luciferase which is formed can be detected by means of chemiluminescence via an appropriate substrate.
The production of the stable PPARdelta reporter cell line is based on a stable HEK-cell clone which was stably transfected with a luciferase reporter element. This step was already described above in the section “construction of the PPARalpha reporter cell line”. […]
The activity of PPARdelta agonists is determined in a 3-day assay in exact analogy to the procedure already described for the PPARalpha reporter cell line except that the PPARdelta reporter cell line and a specific PPARdelta agonist was used as a standard to control test efficacy.

PPARdelta [1] = details: diabetic animal model; cited from earlier work
PPARdelta [2] = details: obese, insulin resistant rhesus monkeys; cited from earlier work

EC50 (human PPARgamma) [nM] | EC50 (human PPARdelta) [nM] | SMILES | further results
430 | 26 | CCOc1cc(C(F)(F)F)ccc1C(=O)N[C@@H]1CCC[C@H]1c1ccc(S(=O)(=O)Nc2nnc(C(C)C)s2)cc1 (relative stereo) [Example 2, 2-Ethoxy-N-{trans-2-[4-(5-isopropyl-[1,3,4]thiadiazol-2-ylsulfamoyl)-phenyl]-cyclopentyl}-4-trifluoromethyl-benzamide] | –
230 | 240 | CCOc1cc(C(F)(F)F)ccc1C(=O)N[C@@H]1CCC[C@@H]1c1ccc(S(=O)(=O)Nc2nnc(C(C)C)s2)cc1 (relative stereo) [Example 3, 2-Ethoxy-N-{cis-2-[4-(5-isopropyl-[1,3,4]thiadiazol-2-ylsulfamoyl)-phenyl]-cyclopentyl}-4-trifluoromethyl-benzamide] | –
> 10000 | 120 | CCOc1cc(C(F)(F)F)ccc1C(=O)NCC1(c2ccc(S(=O)(=O)Nc3nnc(C(C)C)s3)cc2)CCCCC1 [Example 1, 2-Ethoxy-N-{1-[4-(5-isopropyl-[1,3,4]thiadiazol-2-ylsulfamoyl)-phenyl]-cyclohexylmethyl}-4-trifluoromethyl-benzamide] | –
7 | 21 | CCOc1cc(C(F)(F)F)ccc1C(=O)NCC1(c2ccc(S(=O)(=O)Nc3nnc(C(C)C)s3)cc2)CCCC1 [Example 4, 2-Ethoxy-N-{1-[4-(5-isopropyl-[1,3,4]thiadiazol-2-ylsulfamoyl)-phenyl]-cyclopentylmethyl}-4-trifluoromethyl-benzamide] | –
– | – | CCCc1c(OCCCOc2ccc(OCC(=O)O)cc2)ccc(C(C)=O)c1O [Example L-165041] | plasma cholesterol (PPARdelta [1]): raises
– | – | Cc1cc(SCc2sc(-c3ccc(C(F)(F)F)cc3)nc2C)ccc1OCC(=O)O [GW501516] | HDL-cholesterol (PPARdelta [2]): raises; insulin levels (PPARdelta [2]): decreases; plasma LDL-cholesterol (PPARdelta [2]): decreases; triglycerides (PPARdelta [2]): decreases
